From publication PMC3422893 (Journal of medicinal chemistry, 2011)

What was measured:
ATF3 = test: Western blot of ATF3 protein in H1703 cells; assay type: cell-based, human
SAPK/JNK = test: Western blot of SAPK/JNK pathway activation in H1703 cells; assay type: cell-based, human
H1703 cells = test: H1703 non-small cell lung cancer xenograft model; assay type: in vivo, athymic NCr-nu/nu mice; settings: three times a week for 3 weeks
H1703 xenograft tumors = test: H&E staining and immunohistochemistry of xenograft tumors; assay type: in vivo, athymic NCr-nu/nu mice
PARP = test: Western blot of PARP cleavage; assay type: cell-based, human; settings: H1703 cells, 1 µM, 1, 4, or 6 h

## O=C1c2ccccc2-c2n[nH]c3cccc1c23 [1,9-pyrazoloanthrone, reference compound]
ATF3; pretreatment 50 µM, 30 min
  effect on 1-induced ATF3 upregulation: partially blocked
SAPK/JNK; pretreatment 50 µM, 30 min
  effect on 1-induced activation of ATF2 and c-jun: inhibited

## CCOC(=O)N1CCN(/[N+]([O-])=N/Oc2ccc([N+](=O)[O-])cc2[N+](=O)[O-])CC1 [Compound 1, O^2-(2,4-dinitrophenyl) 1-[(4-ethoxycarbonyl)piperazin-1-yl]diazen-1-ium-1,2-diolate]
ATF3; 1 µM
  ATF3 protein expression: induced
SAPK/JNK
  SAPK/JNK activation (phosphorylation): caused SAPK/JNK activation
SAPK/JNK; 1 µM
  time to detection of SAPK/JNK phosphorylation: ≤ 30 min
H1703 cells; 6 µmol/kg i.v.
  growth of H1703 cells in vivo: significantly reduced growth
H1703 xenograft tumors; 6 µmol/kg i.v.
  ATF3 protein level in tumors, immunohistochemistry: upregulation in ATF3 protein level
  P-SAPK/JNK in tumors, immunohistochemistry: phosphorylation of SAPK/JNK
  tissue death in tumors, H&E staining: significant tissue death
PARP
  cleavage of PARP: resulted in cleavage of PARP

## CCOC(=O)N1CCN(/[N+]([O-])=N/Oc2cc(C)c([N+](=O)[O-])cc2[N+](=O)[O-])CC1 [Compound 6, O^2-(2,4-Dinitro-5-methylphenyl) 1-[(4-Ethoxycarbonyl)piperazin-1-yl]diazen-1-ium-1,2-diolate]
H1703 cells; 8 µmol/kg i.v.
  growth of H1703 cells in vivo: did not result in reduction in H1703 tumor growth in vivo
H1703 xenograft tumors; 8 µmol/kg i.v.
  ATF3 protein level in tumors, immunohistochemistry: comparable to that of the control
  P-SAPK/JNK in tumors, immunohistochemistry: did not stain for P-SAPK/JNK

## O=S(=O)(O)c1cc(O)c(O)c(S(=O)(=O)O)c1 [Tiron, reference compound]
SAPK/JNK; pretreatment 10 mM for 1 h, then 30-min incubation with 1 or 2
  effect on SAPK/JNK phosphorylation resulting from 1 or 2: attenuated SAPK/JNK phosphorylation
